Source: patent publication US8263631B2, “Anti-cancer pharmaceutical compositions and methods for treating patients with cancer” (Daiichi Sankyo Company, Limited, priority 2006, dated 2012)
Marks after values point to notes of the source that are not given here.

What was measured:
[1] = test system: human colon cancer line WiDr; experiment: In vivo anti-tumor activity against human colon cancer cells (WiDr tumor-bearing nude mouse); conditions: once a day, 5 times per week
Description: In the experiment, human colon cancer line WiDr (purchased from American Type Culture Collection), in which it was confirmed that no mouse pathogenic microorganism was detected by quarantine, was transplanted to a subcutaneous axillary portion of a nude mouse BALB/cA Jcl-nu (CLEA Japan, Inc.), to subculture a tumor. The tumor was cut into small pieces of 5 mm size, and was transplanted to a right subcutaneous axillary portion of a BALB/cA Jcl-nu mouse by using a troker (CLEA Japan, Inc.). The required amounts of Compounds X and Y were each weighed and were dissolved in N,N-dimethylacetamide (DMA: Wako Pure Chemical Industries, Ltd.), and 5% Emulphor 620 (GAF Corporation)-saline (Otsuka Pharmaceutical Co., Ltd.) was then added to the mixtures in small amounts, so that the concentrations of the compounds were each adjusted to 0.2, 1 or 5 mg/mL. Here, DMA was made to have a final concentration of 2.5%. […] Twice a week, the major axis and the minor axis of the transplanted tumor were measured using digital micrometer calipers (MAX-CAL MAX-15: Nihon Sokutei Kougu Kabusiki Kaisha), and tumor proliferation inhibitory activity was obtained from the following calculation formula and expressed as the tumor volume inhibition rate. Average tumor volume in each test group (mm^3)=½×(minor axis)^2 (mm^2)×(major axis) (mm) Tumor volume inhibition rate (%)={1−(average tumor volume of drug administration group/average tumor volume of drug non-administration group)}×100
Evaluation of anti-tumor activity of each of the drug administration groups was determined by the tumor volume inhibition rate. In addition, a statistical difference test was determined by conducting Students' t test with respect to the tumor the volume of drug non-administration control group and the drug administration group 38 days after transplantation.

[2] = test system: human non-small-cell lung cancer line A549; experiment: In vitro cell proliferation inhibitory activity, combination with EGFR inhibitor; conditions: Compound X 10 μM alone, A549, 7 days
Procedure: Human non-small-cell lung cancer line A549 cells (purchased from American Tissue Culture Collection) were cultured using 10% fetal bovine serum (Hyclone Laboratories, Inc.)-RPMI (Invitrogen Corporation). A549 cells were inoculated on a 96-well plate at 5×10^2 cells/well, and at the same time, the agents of various concentrations dissolved in DMSO were added so that the concentration of DMSO became 0.1%. […] After the addition of the drugs, cells were cultivated in the presence of 5% carbon dioxide at 37° C. for 7 days. Then, Cell Titer 96 Aqueous One Solution Reagent (Promega Corp.) was added at 40 μl/well each, followed by 2 hours of cultivation. Absorbance A490 of each well was measured using MICROPLATE READER (Bio-Rad Laboratories, Inc.).

[3] = test system: human leukemia cell line THP-1; experiment: Cell proliferation inhibitory activity against human leukemia cell (Cell Titer 96); assay type: cell-based; conditions: 5 days
[4] = test system: human leukemia cell line HL-60; experiment: as above; assay type: cell-based; conditions: 5 days
[5] = test system: human non-small-cell lung cancer line A549; experiment: In vivo anti-tumor activity against non-small-cell lung cancer (A549 tumor-bearing nude mouse); conditions: Compound X alone, 1 mg/mL, 0.1 mL per 10 g orally, once a day, 5 times per week, day 14 to 60
Description: In the experiment, human non-small-cell lung cancer line A549 (purchased from American Type Culture Collection), in which it was confirmed that no mouse pathogenic microorganism was detected by quarantine, was transplanted to a subcutaneous axillary portion of a nude mouse BALB/cA Jcl-nu (CLEA Japan, Inc.), to subculture a tumor. The tumor was cut into small pieces of 5 mm size, and transplanted to a right subcutaneous axillary portion of a BALB/cA Jcl-nu mouse by using a troker (CLEA Japan, Inc.). […] Twice a week, the major axis and the minor axis of the transplanted tumor were measured using digital micrometer calipers (MAX-CAL MAX-15: Nihon Sokutei Kougu Kabusiki Kaisha), and tumor proliferation inhibitory activity was obtained from the following calculation formula and expressed as the tumor volume inhibition rate. […]
Evaluation of anti-tumor activity for each of the drug administration groups was determined by the tumor volume inhibition rate. In addition, a statistical difference test was determined by conducting Students' t test with respect to tumor volume of the drug non-administration control group and the drug administration group 63 days after transplantation.

[6] = test system: MKN74, MKN28, ZR-75-1, SBC-1, AsPC-1, DU-145, ACHN, D341 Med, A-204, RD-ES, SW872, U266 cancer cell lines; experiment: Evaluation of cancer cell proliferation inhibitory activity (sulforhodamine B staining, absorbance A490); assay type: cell-based, human; conditions: 0.1, 1 or 10 μM (AsPC-1: 0.05, 0.5 or 5 μM), 7 days (U266: 4 days); all cancer cell lines, FIGS. 1-3
Description: Human gastric cancer cell line (MKN74, MKN28) purchased from Immuno-Biological Laboratories Co., Ltd., human breast cancer cell line (ZR-75-1), small-cell lung cancer line (SBC-1), pancreatic cancer cell line (AsPC-1), prostate cancer cell line (DU-145), kidney cancer cell line (ACHN), medulloblastoma line (D341 Med), human sarcoma cell line (rhabdomyosarcoma line A-204, Ewing's sarcoma line RD-ES, liposarcoma line SW872) and multiple myeloma line (U266) that were purchased from […] were used in the test. […]
To the control group was added only DMSO so that its concentration became 0.1%. […] 10 mM Tris was added at […] to each well in which cancer cells were immobilized and stained, and absorbance A490 of each well was measured using MICROPLATE READER Model 3550 (Bio-Rad Laboratories, Inc.). […]
In each of the graphs, the longitudinal axis represents the absorbance [%], and the horizontal axis represents the concentration of Compound X [μM].

[7] = test system: human kidney cancer line SN12-PM6; experiment: In vivo anti-tumor activity against human kidney cancer (SN12-PM6 tumor-bearing nude mouse); conditions: 0.1 mL per 10 g orally, once a day, 5 times per week, day 10 to 56
Description: In the experiment, human kidney cancer line SN12-PM6 (provided by Professor Seiji Naito of Kyushu University), in which it was confirmed that no mouse pathogenic microorganism was detected by quarantine, was transplanted to a subcutaneous axillary portion of a nude mouse BALB/cA Jcl-nu (CLEA Japan, Inc.), to subculture a tumor. The tumor was cut into small pieces in a size of 5 mm, and transplanted to a right subcutaneous axillary portion of a BALE/cA Jcl-nu mouse by using a troker (CLEA Japan, Inc.). […] Subsequently, distilled water (Otsuka Pharmaceutical Factory, Inc.) was added so that the final concentrations of ethanol and cremophor became each 12.5%. […] Twice a week, the major axis and the minor axis of the transplanted tumor were measured using digital micrometer calipers (MAX-CAL MAX-15: Nihon Sokutei Kougu Kabusikikaisha), and tumor proliferation inhibitory activity was obtained from the following calculation formula and expressed as the tumor volume inhibition rate. […]
Evaluation of anti-tumor activity for each of the drug administration group was determined by the tumor volume inhibition rate. In addition, a statistical difference test was determined by conducting Students' t test with respect to the tumor volumes of the drug non-administration control group and the drug administration group 59 days after transplantation.

[8] = test system: human non-small-cell lung cancer line A549; experiment: In vitro cell proliferation inhibitory activity, combination with VEGFR and Raf kinase inhibitor; assay type: cell-based; conditions: Compound X 10 μM alone, A549, 6 days
Procedure: Human non-small-cell lung cancer line A549 cells were inoculated on a 96-well plate at 5×10^2 cells/well, and at the same time, agents of various concentrations dissolved in DMSO were added so that the concentration of DMSO became 0.1%. […] After addition of the drugs, the cells were cultivated in the presence of 5% carbon dioxide at 37° C. for 6 days. Then, Cell Titer 96 Aqueous One Solution Reagent (Promega Corp.) was added at 40 μl/well each, and then absorbance A490 of each well was measured using MICROPLATE READER (Bio-Rad Laboratories, Inc.).

[9] = 2 mg/kg orally, determined on Day 35, Exp. 2
[10] = 10 mg/kg orally, determined on Day 35, Exp. 2
[11] = 50 mg/kg orally, determined on Day 35, Exp. 1
[12] = 50 mg/kg orally, determined on Day 35, Exp. 2

CC(C)Nc1cccc(Oc2ccc3nc(COc4ccc(CC5SC(=O)NC5=O)cc4)n(C)c3c2)c1.Cl.Cl (centres unmarked) [Compound Y, 5-(4-(6-(3-Isopropylamino-phenoxy)-1-methyl-1H-benzimidazol-2-ylmethoxy)-benzyl)-thiazolidine-2,4-dione.dihydrochloride]
Tumor volume inhibition rate [1, 9]: 26* %
Tumor volume inhibition rate [1, 10]: 32* %
Tumor volume inhibition rate [1, 11]: 35* %
Tumor volume inhibition rate [1, 12]: 40* %

Cc1cc(Oc2ccc3nc(COc4ccc(CC5SC(=O)NC5=O)cc4)n(C)c3c2)cc(C)c1N.Cl.Cl (centres unmarked) [Compound X, 5-(4-(6-(4-Amino-3,5-dimethyl-phenoxy)-1-methyl-1H-benzimidazol-2-ylmethoxy)-benzyl)-thiazolidine-2,4-dione.dihydrochloride]
Tumor volume inhibition rate [1, 9]: 31* %
Tumor volume inhibition rate [1, 10]: 35* %
Tumor volume inhibition rate [1, 11]: 49* %
Tumor volume inhibition rate [1, 12]: 38* %
Cell proliferation inhibition rate [2]: 12%
THP-1 Proliferation inhibition rate ([3]; Compound X 10 μM): 7%
THP-1 Proliferation inhibition rate ([3]; Compound X 25 μM): 20%
THP-1 Proliferation inhibition rate ([3]; Compound X 50 μM): 48** %
HL-60 Proliferation inhibition rate ([4]; Compound X 10 μM): 23%
HL-60 Proliferation inhibition rate ([4]; Compound X 25 μM): 27* %
HL-60 Proliferation inhibition rate ([4]; Compound X 50 μM): 45** %
Tumor volume inhibition rate [5]: 33%
cancer cell proliferation inhibitory activity (absorbance % of DMSO control) [6]: significant proliferation inhibitory activity
Tumor volume inhibition rate ([7]; Compound X alone, 0.3 mg/mL): 37%
Proliferation inhibition rate [8]: 15%

CNC(=O)c1cc(Oc2ccc(NC(=O)Nc3ccc(Cl)c(C(F)(F)F)c3)cc2)ccn1 [Sorafenib, sorafenib, reference compound]
Tumor volume inhibition rate ([7]; sorafenib alone, 10 mg/mL): 43%
